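Growth conditions: 96-well plates. Treatment: test compound, 48 hours, 5 concentrations. Analysis: linear interpolation between bracketing concentrations; unreached endpoints set to highest concentration. GI50: concentration for 50% inhibition of growth. Definition used: TGI = concentration required for complete inhibition of growth.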
Experiments:
Assay in all cases: NCI tumour cell line growth inhibition, 48 h; in the data active = GI50 below about 0.43 µM; inactive = the rest
NCI/ADR-RES ovarian = test system: NCI/ADR-RES ovarian
HCC-2998 colon = test system: HCC-2998 colon
RPMI-8226 leukemia = test system: RPMI-8226 leukemia
HL-60(TB) leukemia = test system: HL-60(TB) leukemia
SK-MEL-5 melanoma = test system: SK-MEL-5 melanoma
SNB-19 CNS = test system: SNB-19 CNS
SR leukemia = test system: SR leukemia
NCI-H23 lung = test system: NCI-H23 lung
SK-OV-3 ovarian = test system: SK-OV-3 ovarian
NCI-H522 lung = test system: NCI-H522 lung
SNB-75 CNS = test system: SNB-75 CNS
SF-539 CNS = test system: SF-539 CNS
A498 renal = test system: A498 renal
KM12 colon = test system: KM12 colon
HT29 colon = test system: HT29 colon
BT-549 breast = test system: BT-549 breast
SW-620 colon = test system: SW-620 colon
HS 578T breast = test system: HS 578T breast
NCI-H226 lung = test system: NCI-H226 lung
MDA-MB-231 breast = test system: MDA-MB-231 breast
EKVX NSCLC = test system: EKVX NSCLC
HCT-15 colon = test system: HCT-15 colon
SN12C renal = test system: SN12C renal
MOLT-4 leukemia = test system: MOLT-4 leukemia
SF-268 CNS = test system: SF-268 CNS
MCF7 breast = test system: MCF7 breast
PC-3 prostate = test system: PC-3 prostate
HOP-62 NSCLC = test system: HOP-62 NSCLC
HOP-92 NSCLC = test system: HOP-92 NSCLC
IGROV1 ovarian = test system: IGROV1 ovarian
OVCAR-5 ovarian = test system: OVCAR-5 ovarian
UACC-257 melanoma = test system: UACC-257 melanoma
K-562 leukemia = test system: K-562 leukemia
786-0 renal = test system: 786-0 renal
TK-10 renal = test system: TK-10 renal
M14 melanoma = test system: M14 melanoma
OVCAR-4 ovarian = test system: OVCAR-4 ovarian
CCRF-CEM leukemia = test system: CCRF-CEM leukemia
A549 NSCLC = test system: A549 NSCLC
UACC-62 melanoma = test system: UACC-62 melanoma
DU-145 prostate = test system: DU-145 prostate
COLO 205 colon = test system: COLO 205 colon
SF-295 CNS = test system: SF-295 CNS
ACHN renal = test system: ACHN renal
HCT-116 colon = test system: HCT-116 colon
MALME-3M melanoma = test system: MALME-3M melanoma
RXF 393 renal = test system: RXF 393 renal
OVCAR-8 ovarian = test system: OVCAR-8 ovarian
SK-MEL-28 melanoma = test system: SK-MEL-28 melanoma
LOX IMVI melanoma = test system: LOX IMVI melanoma
MDA-MB-435 = test system: MDA-MB-435
SK-MEL-2 melanoma = test system: SK-MEL-2 melanoma
NCI-H460 lung = test system: NCI-H460 lung
T-47D breast = test system: T-47D breast
U251 CNS = test system: U251 CNS
CAKI-1 renal = test system: CAKI-1 renal
UO-31 renal = test system: UO-31 renal

Cc1ccc(-c2nnc(SCc3ccc(O)c4ncccc34)n2-c2ccccc2)cc1
24 µM: TGI (RXF 393 renal)
6.09 µM: TGI (COLO 205 colon)
4.27 µM: TGI (SF-295 CNS)
inactive: GI50 (A498 renal) 1500 nM | GI50 (HT29 colon) 3.78 µM | GI50 (NCI-H226 lung) 973 nM | GI50 (MDA-MB-231 breast) 439 nM | GI50 (OVCAR-5 ovarian) 1130 nM | GI50 (786-0 renal) 509 nM | GI50 (OVCAR-4 ovarian) 431 nM | GI50 (COLO 205 colon) 1440 nM
31.1 µM: TGI (SNB-19 CNS)
10.9 µM: TGI (SF-268 CNS)
active: GI50 (NCI/ADR-RES ovarian) 147 nM | GI50 (HCC-2998 colon) 326 nM | GI50 (RPMI-8226 leukemia) 232 nM | GI50 (HL-60(TB) leukemia) 161 nM | GI50 (SK-MEL-5 melanoma) 337 nM | GI50 (SNB-19 CNS) 231 nM | GI50 (SR leukemia) 78.2 nM | GI50 (NCI-H23 lung) 254 nM | GI50 (SK-OV-3 ovarian) 370 nM | GI50 (NCI-H522 lung) 305 nM | GI50 (SNB-75 CNS) 248 nM | GI50 (SF-539 CNS) 272 nM | GI50 (KM12 colon) 294 nM | GI50 (BT-549 breast) 201 nM | GI50 (SW-620 colon) 192 nM | GI50 (HS 578T breast) 236 nM | GI50 (EKVX NSCLC) 395 nM | GI50 (HCT-15 colon) 66.6 nM | GI50 (SN12C renal) 329 nM | GI50 (MOLT-4 leukemia) 196 nM | GI50 (SF-268 CNS) 90.6 nM | GI50 (MCF7 breast) 81.9 nM | GI50 (PC-3 prostate) 164 nM | GI50 (HOP-62 NSCLC) 345 nM | GI50 (HOP-92 NSCLC) 195 nM | GI50 (IGROV1 ovarian) 284 nM | GI50 (UACC-257 melanoma) 388 nM | GI50 (K-562 leukemia) 217 nM | GI50 (TK-10 renal) 249 nM | GI50 (M14 melanoma) 166 nM | GI50 (CCRF-CEM leukemia) 94.9 nM | GI50 (A549 NSCLC) 366 nM | GI50 (UACC-62 melanoma) 347 nM | GI50 (DU-145 prostate) 298 nM | GI50 (SF-295 CNS) 265 nM | GI50 (ACHN renal) 144 nM | GI50 (HCT-116 colon) 46.7 nM | GI50 (MALME-3M melanoma) 353 nM | GI50 (RXF 393 renal) 399 nM | GI50 (OVCAR-8 ovarian) 175 nM | GI50 (SK-MEL-28 melanoma) 376 nM | GI50 (LOX IMVI melanoma) 206 nM | GI50 (MDA-MB-435) 110 nM | GI50 (SK-MEL-2 melanoma) 276 nM | GI50 (NCI-H460 lung) 38.2 nM | GI50 (T-47D breast) 289 nM | GI50 (U251 CNS) 98.9 nM | GI50 (CAKI-1 renal) 312 nM | GI50 (UO-31 renal) 155 nM
2210 nM: TGI (UACC-62 melanoma)
2270 nM: TGI (NCI/ADR-RES ovarian)
1250 nM: TGI (HOP-92 NSCLC)
7.79 µM: TGI (CAKI-1 renal)
2000 nM: TGI (HS 578T breast)
26.7 µM: TGI (786-0 renal)
13.2 µM: TGI (A498 renal)
> 21.7 µM: TGI (BT-549 breast)
1740 nM: TGI (U251 CNS)
> 35.3 µM: TGI (HCT-116 colon)
> 60.8 µM: TGI (EKVX NSCLC)
3.53 µM: TGI (T-47D breast)
4.05 µM: TGI (SK-OV-3 ovarian)
2140 nM: TGI (OVCAR-8 ovarian)
24.9 µM: TGI (MDA-MB-231 breast)
4.22 µM: TGI (UACC-257 melanoma)
3.16 µM: TGI (SF-539 CNS)
1260 nM: TGI (UO-31 renal)
3.97 µM: TGI (LOX IMVI melanoma)
2680 nM: TGI (SNB-75 CNS)
6.67 µM: TGI (MALME-3M melanoma)
4.4 µM: TGI (TK-10 renal)
3.24 µM: TGI (M14 melanoma)
> 100 µM: TGI (HCC-2998 colon) | TGI (RPMI-8226 leukemia) | TGI (SR leukemia) | TGI (KM12 colon) | TGI (HT29 colon) | TGI (SW-620 colon) | TGI (NCI-H226 lung) | TGI (HCT-15 colon) | TGI (SN12C renal) | TGI (MOLT-4 leukemia) | TGI (MCF7 breast) | TGI (PC-3 prostate) | TGI (IGROV1 ovarian) | TGI (OVCAR-5 ovarian) | TGI (K-562 leukemia) | TGI (OVCAR-4 ovarian) | TGI (CCRF-CEM leukemia) | TGI (A549 NSCLC) | TGI (DU-145 prostate) | TGI (SK-MEL-28 melanoma) | TGI (MDA-MB-435)
2630 nM: TGI (HOP-62 NSCLC)
875 nM: TGI (SK-MEL-2 melanoma)
1580 nM: TGI (NCI-H460 lung)
4.24 µM: TGI (NCI-H522 lung)
> 39.8 µM: TGI (HL-60(TB) leukemia) | TGI (NCI-H23 lung)
8.02 µM: TGI (ACHN renal)

Source: PubChem BioAssay (NCI)
